The source of these data is paper PMC7594721, “Synthesis and biological activity of 2-cyanoacrylamide derivatives tethered to imidazopyridine as TAK1 inhibitors” (Journal of Enzyme Inhibition and Medicinal Chemistry, 2020).

Common to all, as to test: Kinase HotSpot profiling (Reaction Biology Corp.)
Holding throughout (type): biochemical
Holding throughout (details): ATP at Km

Assay [1] deals with T1, BRAF (Homo sapiens, UniProt P15056).
T1 construct: purchased Reaction Biology Corp
On the procedure: (§1) Kinase assays were performed by Invitrogen (now Thermo Fisher Scientific, Waltham, MA) or Reaction Biology Corp. (Malvern, PA). Inhibitory activity of compounds for TAK1 was evaluated using LanthaScreen® Eu Kinase Binding Assay (Invitrogen, Waltham, MA). The kinase profile of compound 13h was determined by the kinase HotSpot Profiling service of Reaction Biology Corporation. All assays were performed at Km for ATP.

Assay [2] addresses T2, MEKK2 (Homo sapiens, UniProt Q9Y2U5).
T2 construct: purchased Reaction Biology Corp
T2 sequence (Q9Y2U5 1-619): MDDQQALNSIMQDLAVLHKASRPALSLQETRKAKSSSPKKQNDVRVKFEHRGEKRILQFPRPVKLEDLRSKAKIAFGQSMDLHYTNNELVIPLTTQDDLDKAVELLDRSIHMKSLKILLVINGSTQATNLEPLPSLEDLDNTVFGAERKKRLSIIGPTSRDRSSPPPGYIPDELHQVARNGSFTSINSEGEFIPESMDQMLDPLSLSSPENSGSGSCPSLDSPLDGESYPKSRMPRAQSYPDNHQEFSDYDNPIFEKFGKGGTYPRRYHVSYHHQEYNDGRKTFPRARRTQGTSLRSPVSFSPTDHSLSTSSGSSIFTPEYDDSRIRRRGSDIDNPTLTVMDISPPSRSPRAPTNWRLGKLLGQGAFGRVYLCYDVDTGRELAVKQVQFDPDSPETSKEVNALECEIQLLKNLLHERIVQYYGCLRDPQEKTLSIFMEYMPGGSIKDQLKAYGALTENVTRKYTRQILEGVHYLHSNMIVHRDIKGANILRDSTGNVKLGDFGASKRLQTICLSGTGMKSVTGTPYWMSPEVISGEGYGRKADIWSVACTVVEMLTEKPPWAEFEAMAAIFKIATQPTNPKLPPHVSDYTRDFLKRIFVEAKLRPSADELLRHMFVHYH
The method, then: as §1

For assay [3], the target named is T3, ASK1/MAP3K5 (Homo sapiens, UniProt Q99683).
T3 construct: purchased Reaction Biology Corp
T3 sequence (Q99683 1-1374): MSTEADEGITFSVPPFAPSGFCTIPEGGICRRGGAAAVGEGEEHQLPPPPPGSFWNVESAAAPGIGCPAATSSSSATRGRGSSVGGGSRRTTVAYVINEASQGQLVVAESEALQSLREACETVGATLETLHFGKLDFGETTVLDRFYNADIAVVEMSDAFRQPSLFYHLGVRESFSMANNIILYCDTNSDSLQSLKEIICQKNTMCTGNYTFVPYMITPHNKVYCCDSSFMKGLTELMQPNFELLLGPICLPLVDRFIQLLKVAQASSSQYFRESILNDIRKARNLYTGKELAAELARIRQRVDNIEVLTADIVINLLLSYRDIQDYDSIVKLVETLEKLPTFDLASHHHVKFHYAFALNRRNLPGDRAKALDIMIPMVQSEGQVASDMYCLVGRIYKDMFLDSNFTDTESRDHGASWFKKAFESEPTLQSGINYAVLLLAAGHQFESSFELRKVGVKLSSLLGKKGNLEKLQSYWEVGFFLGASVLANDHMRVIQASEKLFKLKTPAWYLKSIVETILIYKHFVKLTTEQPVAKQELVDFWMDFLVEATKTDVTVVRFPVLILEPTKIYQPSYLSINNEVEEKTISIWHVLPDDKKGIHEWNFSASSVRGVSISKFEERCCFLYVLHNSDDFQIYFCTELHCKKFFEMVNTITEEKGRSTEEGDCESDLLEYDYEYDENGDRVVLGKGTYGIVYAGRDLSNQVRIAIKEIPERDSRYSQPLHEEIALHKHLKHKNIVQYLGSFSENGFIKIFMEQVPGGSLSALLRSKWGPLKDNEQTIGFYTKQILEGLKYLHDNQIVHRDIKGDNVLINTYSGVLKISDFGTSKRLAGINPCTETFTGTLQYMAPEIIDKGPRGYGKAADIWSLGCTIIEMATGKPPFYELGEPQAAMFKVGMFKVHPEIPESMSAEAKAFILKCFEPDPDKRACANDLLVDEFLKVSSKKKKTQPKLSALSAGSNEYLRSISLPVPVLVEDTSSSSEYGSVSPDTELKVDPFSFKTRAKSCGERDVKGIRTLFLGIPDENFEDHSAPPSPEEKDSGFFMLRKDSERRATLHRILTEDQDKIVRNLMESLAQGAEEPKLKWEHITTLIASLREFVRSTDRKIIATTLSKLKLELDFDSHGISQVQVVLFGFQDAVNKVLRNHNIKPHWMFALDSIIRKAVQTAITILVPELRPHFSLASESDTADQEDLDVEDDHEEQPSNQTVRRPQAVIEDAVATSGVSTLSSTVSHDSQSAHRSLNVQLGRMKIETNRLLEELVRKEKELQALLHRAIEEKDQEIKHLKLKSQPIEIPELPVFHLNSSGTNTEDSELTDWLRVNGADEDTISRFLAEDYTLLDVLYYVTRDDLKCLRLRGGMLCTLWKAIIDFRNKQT
On the procedure: as §1

The target in assay [4] is T4, MEK1/MAP2K1 (Homo sapiens, UniProt Q02750).
T4 construct: purchased Reaction Biology Corp
T4 sequence (Q02750 whole entry): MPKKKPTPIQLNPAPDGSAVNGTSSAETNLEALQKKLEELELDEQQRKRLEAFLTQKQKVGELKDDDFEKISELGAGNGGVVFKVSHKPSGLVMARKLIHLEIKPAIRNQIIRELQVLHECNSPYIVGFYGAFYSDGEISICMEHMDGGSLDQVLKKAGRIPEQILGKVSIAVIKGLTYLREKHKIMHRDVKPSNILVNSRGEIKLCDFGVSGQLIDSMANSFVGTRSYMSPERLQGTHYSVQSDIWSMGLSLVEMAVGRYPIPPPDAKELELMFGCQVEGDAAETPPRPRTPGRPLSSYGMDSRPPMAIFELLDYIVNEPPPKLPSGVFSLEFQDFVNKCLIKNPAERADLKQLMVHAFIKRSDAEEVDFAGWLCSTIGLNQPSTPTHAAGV
The method, then: as §1

Assay [5] deals with T5, MLK1/MAP3K9 (Homo sapiens, UniProt P80192).
T5 construct: purchased Reaction Biology Corp
T5 sequence (P80192 whole entry): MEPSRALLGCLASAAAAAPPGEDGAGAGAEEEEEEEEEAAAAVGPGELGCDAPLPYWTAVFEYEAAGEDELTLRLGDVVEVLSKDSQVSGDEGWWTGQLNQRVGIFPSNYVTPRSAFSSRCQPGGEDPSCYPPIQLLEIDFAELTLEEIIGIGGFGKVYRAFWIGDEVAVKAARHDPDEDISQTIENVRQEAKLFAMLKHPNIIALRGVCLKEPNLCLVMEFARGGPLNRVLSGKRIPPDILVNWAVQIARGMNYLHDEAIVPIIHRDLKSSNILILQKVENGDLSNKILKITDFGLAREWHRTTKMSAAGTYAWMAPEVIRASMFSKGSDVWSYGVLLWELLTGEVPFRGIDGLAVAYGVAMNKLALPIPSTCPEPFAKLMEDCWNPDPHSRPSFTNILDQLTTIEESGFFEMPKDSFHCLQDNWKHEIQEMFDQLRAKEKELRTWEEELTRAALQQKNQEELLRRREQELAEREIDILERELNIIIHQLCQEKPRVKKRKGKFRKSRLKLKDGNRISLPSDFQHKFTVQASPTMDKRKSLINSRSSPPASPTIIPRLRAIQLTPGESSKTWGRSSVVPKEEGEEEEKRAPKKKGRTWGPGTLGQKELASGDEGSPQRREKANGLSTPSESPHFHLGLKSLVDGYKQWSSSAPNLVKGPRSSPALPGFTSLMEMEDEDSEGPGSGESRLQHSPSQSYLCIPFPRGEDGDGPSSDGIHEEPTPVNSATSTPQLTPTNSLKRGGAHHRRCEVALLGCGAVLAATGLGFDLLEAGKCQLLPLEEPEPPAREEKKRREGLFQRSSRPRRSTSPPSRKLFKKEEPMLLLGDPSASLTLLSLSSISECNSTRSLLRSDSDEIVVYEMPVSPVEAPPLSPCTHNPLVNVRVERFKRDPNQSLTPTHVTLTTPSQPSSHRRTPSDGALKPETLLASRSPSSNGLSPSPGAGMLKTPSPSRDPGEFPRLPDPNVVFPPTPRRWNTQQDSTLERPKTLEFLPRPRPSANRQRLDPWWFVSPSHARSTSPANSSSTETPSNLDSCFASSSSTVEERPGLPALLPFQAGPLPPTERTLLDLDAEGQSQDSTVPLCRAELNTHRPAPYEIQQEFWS
The method, then:
as §1

The target in assay [6] is T6, MINK1/MAP4K6 (Homo sapiens, UniProt Q8N4C8).
T6 construct: purchased Reaction Biology Corp
T6 sequence (Q8N4C8 whole entry): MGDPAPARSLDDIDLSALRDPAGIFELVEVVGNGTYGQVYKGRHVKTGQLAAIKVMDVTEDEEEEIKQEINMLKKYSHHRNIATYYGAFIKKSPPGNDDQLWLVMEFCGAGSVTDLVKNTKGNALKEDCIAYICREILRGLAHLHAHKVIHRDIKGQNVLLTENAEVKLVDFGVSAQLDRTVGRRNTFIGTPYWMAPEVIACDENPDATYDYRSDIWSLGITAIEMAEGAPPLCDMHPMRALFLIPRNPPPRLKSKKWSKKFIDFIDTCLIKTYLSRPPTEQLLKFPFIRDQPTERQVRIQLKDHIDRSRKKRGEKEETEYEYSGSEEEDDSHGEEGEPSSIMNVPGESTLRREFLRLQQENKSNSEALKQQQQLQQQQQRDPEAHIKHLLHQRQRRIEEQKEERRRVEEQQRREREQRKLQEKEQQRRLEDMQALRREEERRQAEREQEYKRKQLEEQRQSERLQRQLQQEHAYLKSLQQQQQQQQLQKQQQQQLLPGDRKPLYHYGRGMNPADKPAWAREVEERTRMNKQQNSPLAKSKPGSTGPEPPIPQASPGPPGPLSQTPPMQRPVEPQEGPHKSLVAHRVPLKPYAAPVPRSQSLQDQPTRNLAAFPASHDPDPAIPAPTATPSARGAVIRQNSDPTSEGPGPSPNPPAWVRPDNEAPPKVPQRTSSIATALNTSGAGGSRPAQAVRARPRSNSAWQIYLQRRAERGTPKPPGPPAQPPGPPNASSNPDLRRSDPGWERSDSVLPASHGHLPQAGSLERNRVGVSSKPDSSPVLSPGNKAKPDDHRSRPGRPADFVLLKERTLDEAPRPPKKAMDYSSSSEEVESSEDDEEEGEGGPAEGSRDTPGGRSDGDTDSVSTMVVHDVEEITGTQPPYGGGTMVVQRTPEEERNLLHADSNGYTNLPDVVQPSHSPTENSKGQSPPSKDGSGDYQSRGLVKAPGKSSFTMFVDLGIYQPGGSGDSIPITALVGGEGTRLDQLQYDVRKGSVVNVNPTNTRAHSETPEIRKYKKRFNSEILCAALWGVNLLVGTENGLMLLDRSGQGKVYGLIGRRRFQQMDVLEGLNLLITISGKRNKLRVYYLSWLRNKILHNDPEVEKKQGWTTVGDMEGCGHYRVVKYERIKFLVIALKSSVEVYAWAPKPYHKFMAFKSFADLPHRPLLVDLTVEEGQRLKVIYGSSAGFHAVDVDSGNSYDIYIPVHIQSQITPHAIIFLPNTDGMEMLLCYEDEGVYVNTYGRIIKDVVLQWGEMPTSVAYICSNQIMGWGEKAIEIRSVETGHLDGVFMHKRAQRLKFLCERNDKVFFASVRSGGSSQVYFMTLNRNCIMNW
The method, then:
as §1

For assay [7], the target named is T7, MEKK1 (Homo sapiens, UniProt Q13233).
T7 construct: purchased Reaction Biology Corp
T7 sequence (Q13233 whole entry): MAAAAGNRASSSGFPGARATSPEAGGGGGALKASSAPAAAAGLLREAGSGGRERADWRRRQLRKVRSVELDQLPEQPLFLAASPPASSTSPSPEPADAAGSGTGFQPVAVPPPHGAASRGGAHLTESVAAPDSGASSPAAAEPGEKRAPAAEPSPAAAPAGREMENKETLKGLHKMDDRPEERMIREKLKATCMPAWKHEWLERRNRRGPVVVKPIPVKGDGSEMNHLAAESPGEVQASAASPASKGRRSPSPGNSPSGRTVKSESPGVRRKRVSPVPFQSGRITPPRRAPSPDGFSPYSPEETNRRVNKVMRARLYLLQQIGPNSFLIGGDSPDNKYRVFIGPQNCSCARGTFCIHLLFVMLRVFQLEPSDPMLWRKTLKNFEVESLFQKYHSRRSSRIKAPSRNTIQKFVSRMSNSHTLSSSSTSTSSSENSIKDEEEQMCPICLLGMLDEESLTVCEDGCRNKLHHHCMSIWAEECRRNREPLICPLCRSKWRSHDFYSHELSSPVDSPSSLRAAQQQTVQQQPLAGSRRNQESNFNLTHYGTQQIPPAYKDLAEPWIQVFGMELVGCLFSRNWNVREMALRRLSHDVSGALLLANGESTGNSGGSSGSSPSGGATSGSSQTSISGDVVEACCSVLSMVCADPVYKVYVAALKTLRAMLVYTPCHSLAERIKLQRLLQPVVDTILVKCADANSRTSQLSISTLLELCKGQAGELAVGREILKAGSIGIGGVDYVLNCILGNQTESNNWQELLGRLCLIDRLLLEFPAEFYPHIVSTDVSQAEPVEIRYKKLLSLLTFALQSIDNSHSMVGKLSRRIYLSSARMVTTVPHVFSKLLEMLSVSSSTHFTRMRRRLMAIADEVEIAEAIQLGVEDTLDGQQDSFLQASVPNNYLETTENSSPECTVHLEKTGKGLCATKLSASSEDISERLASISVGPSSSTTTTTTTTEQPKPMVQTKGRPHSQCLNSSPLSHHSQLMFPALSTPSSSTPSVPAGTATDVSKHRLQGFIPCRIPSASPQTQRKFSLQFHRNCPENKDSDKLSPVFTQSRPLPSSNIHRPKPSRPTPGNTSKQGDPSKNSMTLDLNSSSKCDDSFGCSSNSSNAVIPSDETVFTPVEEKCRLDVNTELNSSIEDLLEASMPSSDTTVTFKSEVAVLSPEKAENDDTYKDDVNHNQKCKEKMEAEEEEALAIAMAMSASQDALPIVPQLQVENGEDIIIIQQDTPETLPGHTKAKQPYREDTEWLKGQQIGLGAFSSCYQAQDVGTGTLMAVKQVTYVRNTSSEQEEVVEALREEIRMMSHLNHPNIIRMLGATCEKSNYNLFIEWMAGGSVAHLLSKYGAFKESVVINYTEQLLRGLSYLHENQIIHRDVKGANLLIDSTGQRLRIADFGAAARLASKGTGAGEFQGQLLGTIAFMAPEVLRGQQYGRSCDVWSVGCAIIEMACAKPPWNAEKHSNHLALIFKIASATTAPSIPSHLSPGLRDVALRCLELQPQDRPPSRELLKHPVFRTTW
The method, then:
as §1

T1 sequence (P15056 whole entry): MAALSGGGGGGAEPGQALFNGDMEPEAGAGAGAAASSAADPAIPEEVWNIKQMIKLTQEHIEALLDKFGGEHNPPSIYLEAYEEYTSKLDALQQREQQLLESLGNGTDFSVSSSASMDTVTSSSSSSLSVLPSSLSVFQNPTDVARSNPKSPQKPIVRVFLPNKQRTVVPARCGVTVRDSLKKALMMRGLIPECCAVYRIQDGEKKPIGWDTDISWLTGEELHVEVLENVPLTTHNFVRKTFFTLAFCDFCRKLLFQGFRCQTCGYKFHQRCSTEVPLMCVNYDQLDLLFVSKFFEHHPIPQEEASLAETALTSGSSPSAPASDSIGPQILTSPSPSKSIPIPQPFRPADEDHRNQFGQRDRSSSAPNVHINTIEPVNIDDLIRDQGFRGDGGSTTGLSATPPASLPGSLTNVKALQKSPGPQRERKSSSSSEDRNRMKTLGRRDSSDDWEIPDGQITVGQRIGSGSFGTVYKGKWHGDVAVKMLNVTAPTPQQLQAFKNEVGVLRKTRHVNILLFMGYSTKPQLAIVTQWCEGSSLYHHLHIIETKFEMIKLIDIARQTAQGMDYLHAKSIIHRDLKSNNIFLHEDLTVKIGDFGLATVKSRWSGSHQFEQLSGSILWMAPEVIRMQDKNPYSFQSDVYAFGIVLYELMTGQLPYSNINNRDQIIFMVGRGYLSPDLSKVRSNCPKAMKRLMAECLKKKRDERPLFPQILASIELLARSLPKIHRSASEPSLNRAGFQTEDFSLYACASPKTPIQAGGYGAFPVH

For `Cc1cccc(/C=C(\C#N)C(=O)N[C@@H]2CCN(c3c(Cl)cnc4[nH]c(-c5ccc(N6CCN(C)CC6)cc5)nc34)C2)n1` [Compound 13h, (R,E)-N-(1–(6-chloro-2–(4-(4-methylpiperazin-1-yl)phenyl)-3H-imidazo[4,5-b]pyridin-7-yl)pyrrolidin-3-yl)-2-cyano-3-(6-methylpyridin-2-yl)acrylamide], the inhibition – broadly, the change of the read-out against control, counted positive when it falls – at 1 µM in assay [1] was found to be 0%; in assay [2] it was 0%; in assay [3], 4%; in assay [4], 10 ± 0.7%; in assay [5], 35 ± 1.2%; in assay [6], 15 ± 2.4%. This compound also yielded an inhibition at 1 µM in assay [7] of 12 ± 0.7%.
